Test results as given in paper PMC11089505, “Structural Elucidation and Antiviral Activity of Covalent Cathepsin L Inhibitors” (Journal of Medicinal Chemistry, 2024).
Values joined by “and” are separate entries in the source; they are usually repeats but may differ in a detail not shown here. Identical values can stand only once.

Columns and labels:
[1] = target: T1, CatL (Homo sapiens, UniProt P07711, T223A); assay: CatL inactivation assay comparing epoxides at pH 6 and pH 4; format: biochemical
T1 construct: made in house; host or cells: Komagataella pastoris strain GS115
Procedure: Experiments were performed in a solution of 50 mM sodium acetate, pH 4.0, 50 mM NaCl, 0.1% PEG 6000, and 5 mM DTT. Distinct assays with epoxide inhibitors at pH 6.0 were performed in 50 mM sodium phosphate buffer, 50 mM NaCl, 5 mM DTT, 0.1% PEG 6000, adjusted to pH 6.0.
M1000 pro plate reader (Tecan), the fluorescent peptide substrate Z-RR-AMC, and excitation and emission wavelengths of 370 and 460 nm, respectively.
At first, the inhibitor concentration span was optimized for each inhibitor and the assay buffer. For this initial screening, CatL (5 nM) was mixed with different concentrations of inhibitors (1 nM–50 μM) to determine the range of their inhibition. […] Reaction data were fitted to the […] in GraphPad Prism 9 software: Y = bottom + (top – bottom)/(1 + 10^∧((log IC50 – X) × HillSlope)); X is the log of dose or concentration, Y is the response (fluorescence signal), decreasing as X increases, top and bottom are the plateaus in the same units as Y, log IC50 same log units as X, HillSlope is the slope factor or called the Hill slope.
Figure S7. Inactivation of CatL.
(1 picture or pasted object on this page, not shown here)

[2] = target: T1, CatL; assay: NanoDSF, thermal stability of CatL; format: binding
[3] = target: SARS-CoV-2 Mpro (Severe acute respiratory syndrome coronavirus 2, UniProt P0DTD1); format: binding

T1 sequence (P07711 114-333 T223A): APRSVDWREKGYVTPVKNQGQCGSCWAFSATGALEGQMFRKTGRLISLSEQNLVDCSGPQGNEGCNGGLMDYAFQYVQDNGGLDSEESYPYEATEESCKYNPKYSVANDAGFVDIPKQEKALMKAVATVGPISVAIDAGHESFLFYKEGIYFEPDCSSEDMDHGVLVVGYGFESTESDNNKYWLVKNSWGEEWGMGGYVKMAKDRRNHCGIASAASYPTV

`CC(C)C[C@H](NC(=O)[C@H]1O[C@@H]1C(=O)O)C(=O)NCCCCN=C(N)N` [E-64, 3-[[[(1S)-1-[[[4-[(Aminoiminomethyl)amino]butyl]amino]carbonyl]-3-methylbutyl]amino]carbonyl]-(2S.3S)-oxiranecarboxylic acid] was tested, and the “Inactivation Rate” value ([1]; E-64, pH 4, 19.76 nM) was 0.0008123 per second and 0.00102 per second, the “Inactivation Rate” value ([1]; E-64, pH 4, 29.64 nM) was 0.001302 per second and 0.001598 per second and the “Inactivation Rate” value ([1]; E-64, pH 4, 44.45 nM) was 0.002006 per second and 0.002388 per second. The “Inactivation Rate” value ([1]; E-64, pH 4, 66.68 nM) was 0.003192 per second and 0.003338 per second, the “Inactivation Rate” value ([1]; E-64, pH 4, 100.01 nM) was 0.004626 per second and 0.004922 per second and the “Inactivation Rate” value ([1]; E-64, pH 4, 225.00 nM) was 0.01185 per second and 0.01036 per second. The “Inactivation Rate” value ([1]; E-64, pH 6, 19.76 nM) was 0.0005258 per second and 0.000578 per second, the “Inactivation Rate” value ([1]; E-64, pH 6, 29.64 nM) was 0.0007668 per second and 0.0008131 per second and the “Inactivation Rate” value ([1]; E-64, pH 6, 44.45 nM) was 0.001154 per second and 0.001247 per second. The “Inactivation Rate” value ([1]; E-64, pH 6, 66.68 nM) was 0.001742 per second and 0.001837 per second, the “Inactivation Rate” value ([1]; E-64, pH 6, 100.01 nM) was 0.002659 per second and 0.002717 per second and the “Inactivation Rate” value ([1]; E-64, pH 6, 225.00 nM) was 0.006042 per second and 0.006005 per second. The “ΔTm [K] for CatL, 2:1 ratio” value [2] was 4.1 ± 0.4 K, the “2:1, Tm average (CatL)” value ([2]; 2:1 compound to protein) was 67.2 °C and the “20:1, Tm average (CatL)” value ([2]; 20:1 compound to protein) was 76.9 °C. For the same compound, the “ΔTm (for CatL), 2:1 compound to protein mixing ratio” value ([2]; pH 5) was 4,1 ± 0,4 °C and 4.1 °C, the “ΔTm (for CatL), 20:1 compound to protein mixing ratio” value ([2]; pH 5) was 13,8 ± 0,1 °C and 13.8 °C and the “ΔTm (for Mpro), 2:1 compound to protein mixing ratio” value ([3]; 8 µM Mpro, pH 7.5, 2% DMSO, 2:1) was -1,0 ± 0,2 °C and -1 °C. For the same compound, the “2:1, Tm average (Mpro)” value ([3]; 2:1 compound to protein) was 54.4 °C.
